From patent publication US6699902B2, “Acetyloxymethyl esters and methods for using the same” (Beacon Laboratories, Inc., priority 2000, dated 2004)

What follows are molecules tested on PC-3 prostate breast cancer cells (assay: EDR assay, anti-proliferation against PC-3 cells (3H-thymidine incorporation in soft agar)). Conditions: Homo sapiens, PC3 cell line, five days incubation, 3H-TdR incorporation.
Format: cell-based
Description: Compounds prepared according to Examples 1-7 were tested for anti-proliferation against PC-3 prostate […] cancer cells. Butyric acid and trichostatin, a potent HDAC inhibitor, were used as reference compounds. Both compounds were purchased from Sigma-Aldrich, Milwaukee, Wis.
The PC3 cell line was maintained in RPMI supplemented with 10% fetal calf serum and antibiotics. The EDR assay was performed as described by Kern and Weisenthal in “Highly Specific Prediction of Antineoplastic Drug Resistance With An In Vitro Assay Using Suprapharmacologic Drug Exposures,” J. Nat. Cancer Inst., 82:582-588 (1990); and Fruehauf and Bosanquet, “In vitro Determination of Drug Response: A Discussion of Clinical Applications,” PPO Updates 7(12):1-16 (1993). Cells were suspended in 0.12% soft agar in complete medium and plated (2,000 cells per well, as determined by preliminary experiments) in different drug concentrations onto a 0.4% agarose underlayer in 24-well plates. Plating cells on agarose underlayers supports the proliferation only of the transformed cells, ensuring that the growth signal stems from the malignant component of the tumor.
All compounds were dissolved in DMSO to 200× stock solutions. Stock solutions were diluted to 20× working solutions using the tissue culture medium, serially diluted and added to the 24-well plates. The concentration range was 0.001 μM to 0.3 μM for trichostatin and 10 μM-1,000 μM for the other compounds. No significant changes in pH of the culture medium were observed under the above conditions. Diluent control wells contained PC3 cells treated with DMSO, at the dilutions used for appropriate drug treatment. All experimental points were represented by two separate wells (duplicates). Positive controls were determined using at least two wells treated with an extremely high dose of cisplatin, an anti-cancer agent. Four wells containing tumor cells that were not treated with drugs served as negative controls in each experiment.
Cells were incubated with drugs under standard culture conditions for five days. Cultures were pulsed with tritiated thymidine (^3H-TdR, New Life Science Products, Boston, Mass.) at 5 μCi per well for the last 48 hours of the culture period. Cell culture plates were then heated to 90° C. to liquefy the agarose, and cells were harvested onto glass fiber filters, which were then placed into counting vials containing liquid scintillation fluid. The radioactivity trapped on the filters was counted with a Beckman scintillation counter. The fraction of surviving cells was determined by comparing ^3H-TdR incorporation in treated (experimental points) and untreated (negative control) wells. All drug concentrations are presented as μM, allowing for normalization of drug response curves and direct comparison of the effects of the drugs. Microsoft Excel was used to organize the raw data on EDR experiments, and the SigmaPlot program was utilized to generate drug response curves. All drug response curves were as approximated as sigmoidal equations (characteristic for typical drug response curves) to fit the data. IC50 values were determined using the approximated sigmoidal curves and expressed as μM.

Row | SMILES | IC50
1 | CC(=O)OCOC(=O)C=CSc1ccccc1 [3-(phenylthio)acryloyloxymethyl acetate] | 30 µM
2 | CC(=O)OCOC(=O)CSCc1ccccc1 [S-benzylthioglycoloyloxymethyl acetate] | 28.4 µM
3 | CCCC(=O)O [butyric acid, reference compound] | > 2000 µM
4 | CC(=O)OCOC(=O)C=Cc1ccccc1 [cinnamoyloxymethyl acetate] | 12.5 µM

Next, values leading:

Row | IC50 | SMILES
5 | 23.2 µM | CC(=O)OCOC(=O)CCCC1CCCCC1 [4-cyclohexanebutyroyloxymethyl acetate]
6 | 20 µM | CC(=O)OCOC(=O)C=CC=Cc1ccccc1 [5-phenyl-2,4-pentadienoyloxymethyl acetate]
7 | 18 µM | CC(=O)OCOC(=O)CC=CC=Cc1ccccc1 [6-phenyl-3,5-hexadienoyloxymethyl acetate]
8 | 25 µM | CC(=O)OCOC(=O)C#Cc1ccccc1 [phenylpropioloyloxymethyl acetate]
9 | 0.005 µM | CC(/C=C/C(=O)NO)=C\[C@@H](C)C(=O)c1ccc(N(C)C)cc1 [trichostatin, reference compound]
